19 compounds from US20140011799A1 (Bristol-Myers Squibb Company, priority 2012, published 2014) can be followed below.

Structures are written as SMILES.

Assay [1] has as its target T1, hepatic lipase (HL) (Homo sapiens, UniProt P11150).
T1 construct: made in house; host or cells: COS cells (conditioned medium, partially purified)
T1 sequence (P11150 23-499): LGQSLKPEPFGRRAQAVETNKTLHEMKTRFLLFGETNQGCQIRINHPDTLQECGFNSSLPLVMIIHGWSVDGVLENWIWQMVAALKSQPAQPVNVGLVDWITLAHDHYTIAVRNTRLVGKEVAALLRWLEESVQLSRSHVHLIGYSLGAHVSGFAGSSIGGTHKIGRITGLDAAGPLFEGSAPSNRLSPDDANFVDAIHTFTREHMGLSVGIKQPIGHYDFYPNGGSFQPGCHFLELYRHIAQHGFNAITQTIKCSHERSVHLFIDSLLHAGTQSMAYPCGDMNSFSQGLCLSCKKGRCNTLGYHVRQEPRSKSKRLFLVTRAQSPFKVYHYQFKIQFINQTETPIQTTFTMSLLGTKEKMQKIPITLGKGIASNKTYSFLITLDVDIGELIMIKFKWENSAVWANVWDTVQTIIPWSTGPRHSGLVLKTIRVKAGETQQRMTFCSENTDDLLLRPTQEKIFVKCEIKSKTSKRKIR
Description: Hepatic lipase (HL) enzymatic assay, fluorescent substrate A10070 in DMPG vesicles. The assay is classed as biochemical. The note with it: HL partially purified from conditioned media of COS cells; compound preincubated 30 min at 37° C; read-out: HL IC50. A digest of the protocol:
(§1)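 EL from conditioned medium of HT-1080 cells engineered to overexpress endogenous EL; HL partially purified from conditioned medium of HL-overexpressing COS cells. Enzyme preincubated with compound 30 min at 37° C in 50 mM HEPES pH 8.0, 50 mM NaCl, 1 mM CaCl2; DMPG vesicles carrying FRET substrate (0.11 mole fraction) then added.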

Assay [2] deals with T2, Endothelial lipase (EL) (Homo sapiens, UniProt Q9Y5X9).
T2 construct: HT-1080 cells that were transformed using RAGE technology (Athersys) to overexpress endogenous EL; endogenous in cells; conditioned medium used
T2 sequence (Q9Y5X9 21-500): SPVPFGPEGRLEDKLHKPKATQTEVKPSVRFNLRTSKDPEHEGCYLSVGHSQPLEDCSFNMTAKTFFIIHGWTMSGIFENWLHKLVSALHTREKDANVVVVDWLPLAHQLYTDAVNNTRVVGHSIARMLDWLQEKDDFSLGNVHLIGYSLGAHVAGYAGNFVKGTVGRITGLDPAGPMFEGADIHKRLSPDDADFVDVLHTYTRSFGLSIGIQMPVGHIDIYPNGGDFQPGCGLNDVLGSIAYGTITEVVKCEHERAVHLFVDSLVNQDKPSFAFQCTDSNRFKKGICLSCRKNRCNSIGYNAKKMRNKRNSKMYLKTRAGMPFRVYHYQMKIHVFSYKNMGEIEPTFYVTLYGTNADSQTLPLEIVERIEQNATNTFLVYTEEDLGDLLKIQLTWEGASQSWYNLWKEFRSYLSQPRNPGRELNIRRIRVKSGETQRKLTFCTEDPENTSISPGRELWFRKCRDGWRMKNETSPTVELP
Description: Endothelial lipase (EL) enzymatic assay, fluorescent substrate A10070 in DMPG vesicles. The assay is classed as biochemical. The note with it: EL from conditioned media of HT-1080 cells; compound preincubated 30 min at 37° C; read-out: EL IC50. A digest of the protocol:
as §1

Consider `CS(=O)(=O)C(c1nnc(CNS(N)(=O)=O)o1)c1nc2cc(-c3ncccn3)ccc2s1` (centres unmarked) [Example 246, N-[(5-{methanesulfonyl[5-(pyrimidin-2-yl)-1,3-benzothiazol-2-yl]methyl}-1,3,4-oxadiazol-2-yl)methyl]aminosulfonamide], for which the figures for the half-inhibitory concentration (IC50) in assay [1] and in assay [2] were 6 nM and 9 nM, respectively.

Turning to `CC(=O)NS(=O)(=O)Cc1nnc(C(c2nc3ccc(-c4ccccc4)cc3s2)S(C)(=O)=O)o1` (centres unmarked) [Example 169, N-(((5-((Methylsulfonyl)(6-phenyl-1,3-benzothiazol-2-yl)methyl)-1,3,4-oxadiazol-2-yl)methyl)sulfonyl)acetamide], the IC50 in assay [1] is 160 nM; in assay [2], < 10 nM.

In the case of `NCCS(=O)(=O)C(c1nnc(CC2SC(=O)NC2=O)o1)c1nc2ccc(-c3ccc(C(=O)N4CCOCC4)cc3)cc2s1` (centres unmarked) [Example 185, 5-{[5-([(2-aminoethyl)sulfonyl]{6-[4-(4-morpholinylcarbonyl)phenyl]-1,3-benzothiazol-2-yl}methyl)-1,3,4-oxadiazol-2-yl]methyl}-1,3-thiazolidine-2,4-dione], the concentration for half-maximal inhibition (IC50) is 70 nM in assay [1] and < 10 nM in assay [2].

`C[C@]1(Cc2nnc(C(c3nc4ccc(-c5ccc(C(=O)N6CCOCC6)cc5)cc4s3)S(C)(=O)=O)o2)OC(=O)NC1=O` (stereo partly drawn) [Example 109, (5R)-5-methyl-5-((5-((methylsulfonyl)(6-(4-(4-morpholinylcarbonyl)phenyl)-1,3-benzothiazol-2-yl)methyl)-1,3,4-oxadiazol-2-yl)methyl)-1,3-oxazolidine-2,4-dione]: the IC50 in assay [1] is 764 nM; in assay [2], < 10 nM.

Take `C=CCS(=O)(=O)C(c1nnc(CNS(N)(=O)=O)o1)c1nc2ccc(-c3ccccc3)cc2s1` (centres unmarked) [Example 120, N-((5-((allylsulfonyl)(6-phenyl-1,3-benzothiazol-2-yl)methyl)-1,3,4-oxadiazol-2-yl)methyl)sulfamide]: the IC50 in assay [1] and in assay [2] was < 10 nM each time.

Take `COCCN(C)C(=O)c1cccc(-c2ccc3nc(C(c4nnc(CC5(C)NC(=O)NC5=O)o4)S(C)(=O)=O)sc3c2)c1` (centres unmarked) [Example 227, 3-{2-[methanesulfonyl({5-[(4-methyl-2,5-dioxo-imidazolidin-4-yl)methyl]-1,3,4-oxadiazol-2-yl})methyl]-1,3-benzothiazol-6-yl}-N-(2-methoxyethyl)-N-methylbenzamide]: the values for the 50% inhibitory concentration (IC50) in assay [1] and in assay [2] were 356 nM and 38 nM, respectively.

On to `CS(=O)(=O)C(c1nnc(CNS(N)(=O)=O)o1)c1nc2ccc(-c3cccc(C(=O)Nc4nnc(C(F)(F)F)o4)c3)cc2s1` (centres unmarked) [Example 253, 3-{2-[methanesulfonyl({5-[(sulfamoylamino)methyl]-1,3,4-oxadiazol-2-yl})methyl]-1,3-benzothiazol-6-yl}-N-[5-(trifluoromethyl)-1,3,4-oxadiazol-2-yl] benzamide], for which the results for the IC50 in assay [1] and in assay [2] were 62 nM and 7 nM, respectively.

Regarding `CC1(O)CN(C(=O)c2cccc(-c3ccc4nc(C(c5nnc(CNS(N)(=O)=O)o5)S(=O)(=O)CCC(F)(F)F)sc4c3)c2)C1` (centres unmarked) [Example 192, N-((5-((6-(3-((3-Hydroxy-3-methyl-1-azetidinyl)carbonyl)phenyl)-1,3-benzothiazol-2-yl)((3,3,3-trifluoropropyl)sulfonyl)methyl)-1,3,4-oxadiazol-2-yl)methyl)sulfamide], the results for the IC50 in assay [1] and in assay [2] were 81 nM and < 10 nM, respectively.

For the compound `COCCS(=O)(=O)C(c1nnc(CNS(N)(=O)=O)o1)c1nc2ccc(-c3cnn(C)c3)cc2s1` (centres unmarked) [Example 116, N-((5-(((2-methoxyethyl)sulfonyl)(6-(1-methyl-1H-pyrazol-4-yl)-1,3-benzothiazol-2-yl)methyl)-1,3,4-oxadiazol-2-yl)methyl) sulfamide], the half-inhibitory concentration (IC50) in assay [1] is 143 nM; in assay [2], < 10 nM.

On to `COc1cc(-c2ccc3nc(C(c4nnc(CNS(N)(=O)=O)o4)S(C)(=O)=O)sc3c2)ccn1` (centres unmarked) [Example 131, N-((5-((6-(2-methoxy-4-pyridinyl)-1,3-benzothiazol-2-yl)(methylsulfonyl)methyl)-1,3,4-oxadiazol-2-yl)methyl)sulfamide], for which the half-maximal inhibitory concentration (IC50) was 102 nM in assay [1] and < 10 nM in assay [2].

For `NS(=O)(=O)NCc1nnc(C(c2nc3ccc(Br)cc3s2)S(=O)(=O)Cc2ccccc2)o1` (centres unmarked) [Example 124, N-((5-((benzylsulfonyl)(6-bromo-1,3-benzothiazol-2-yl)methyl)-1,3,4-oxadiazol-2-yl)methyl)sulfamide], the IC50 is 37 nM in assay [1] and 48 nM in assay [2].

Take `O=C1NC(=O)C(Cc2nnc(C(c3nc4ccc(-c5ccccc5)c(F)c4s3)S(=O)(=O)Cc3ccccc3)o2)S1` (centres unmarked) [Example 162, 5-((5-((benzylsulfonyl)(7-fluoro-6-phenyl-1,3-benzothiazol-2-yl)methyl)-1,3,4-oxadiazol-2-yl)methyl)-1,3-thiazolidine-2,4-dione]: the half-maximal inhibitory concentration (IC50) in assay [1] and in assay [2] was < 10 nM each time.

Regarding `CC(C)(C)OC(=O)NS(=O)(=O)NCc1nnc(C(c2nc3ccc(-c4cncnc4)cc3s2)S(=O)(=O)Cc2ccccc2)o1` (centres unmarked) [Example 121, tert-butyl (((5-((benzylsulfonyl)(6-(5-pyrimidinyl)-1,3-benzothiazol-2-yl)methyl)-1,3,4-oxadiazol-2-yl)methyl)sulfamoyl)carbamate], the figures for the 50% inhibitory concentration (IC50) in assay [1] and in assay [2] were 6550 nM and 147 nM, respectively.

For the compound `NS(=O)(=O)NCc1nnc(C(c2nc3ccc(-c4cccc(C(=O)NCC(F)(F)F)c4)cc3s2)S(=O)(=O)CCC(F)(F)F)o1` (centres unmarked) [Example 195, 3-(2-((5-((sulfamoylamino)methyl)-1,3,4-oxadiazol-2-yl)((3,3,3-trifluoropropyl)sulfonyl)methyl)-1,3-benzothiazol-6-yl)-N-(2,2,2-trifluoroethyl)benzamide], the IC50 in assay [1] was 336 nM; in assay [2], < 10 nM.

As to `CC1(Cc2nnc(C(c3nc4ccc(-c5cccc(C(=O)N6CC(F)(F)C6)c5)cc4s3)S(C)(=O)=O)o2)NC(=O)NC1=O` (centres unmarked) [Example 208, 5-{[5-({6-[3-(3,3-difluoroazetidine-1-carbonyl)phenyl]-1,3-benzothiazol-2-yl} (methanesulfonyl)methyl)-1,3,4-oxadiazol-2-yl]methyl}-5-methyl-imidazolidine-2,4-dione], the IC50 worked out at 131 nM in assay [1] and 177 nM in assay [2].

Consider `COCCNC(=O)c1cccc(-c2ccc3nc(C(c4nnc(CNS(N)(=O)=O)o4)S(=O)(=O)CCC(F)(F)F)sc3c2)c1` (centres unmarked) [Example 199, N-(2-methoxyethyl)-3-(2-((5-((sulfamoylamino)methyl)-1,3,4-oxadiazol-2-yl)((3,3,3-trifluoropropyl)sulfonyl)methyl)-1,3-benzothiazol-6-yl)benzamide], for which the IC50 is 1020 nM in assay [1] and < 10 nM in assay [2].

Consider `CC1(O)CN(C(=O)c2cccc(-c3ccc4nc(C(c5nnc(CC6(C)NC(=O)NC6=O)o5)S(C)(=O)=O)sc4c3)c2)C1` (centres unmarked) [Example 204, 5-{[5-({6-[3-(3-hydroxy-3-methylazetidine-1-carbonyl)phenyl]-1,3-benzothiazol-2-yl} (methanesulfonyl)methyl)-1,3,4-oxadiazol-2-yl]methyl}-5-methyl-imidazolidine-2,4-dione], for which the IC50 in assay [1] was determined as 783 nM; in assay [2] it was 17 nM.

As for `CC(C)(C)OC(=O)Cc1nnc(C(c2nc3ccc(-c4ccc(C(=O)N5CCOCC5)cc4)cc3s2)S(C)(=O)=O)o1` (centres unmarked) [Example 107, tert-butyl (5-((methylsulfonyl)(6-(4-(4-morpholinylcarbonyl)phenyl)-1,3-benzothiazol-2-yl)methyl)-1,3,4-oxadiazol-2-yl)acetate], the IC50 is 13 nM in assay [1] and 28 nM in assay [2].

Regarding `CN1CCN(C(=O)c2cccc(-c3ccc4nc(C(c5nnc(CNS(N)(=O)=O)o5)S(=O)(=O)Cc5ccccc5)sc4c3)c2)CC1` (centres unmarked) [Example 198, N-((5-((benzylsulfonyl)(6-(3-((4-methyl-1-piperazinyl)carbonyl)phenyl)-1,3-benzothiazol-2-yl)methyl)-1,3,4-oxadiazol-2-yl)methyl)sulfamide], the figures for the IC50 in assay [1] and in assay [2] were 9180 nM and < 10 nM, respectively.

The term IC50 denotes the midpoint of a concentration-inhibition curve.
